From ChEMBL document CHEMBL4390652, “Design, biological evaluation and X-ray crystallography of nanomolar multifunctional ligands targeting simultaneously acetylcholinesterase and glycogen synthase kinase-3” (Eur J Med Chem, 2019)

How the values were obtained:
[1] = target: AP2-associated protein kinase 1 (Homo sapiens) (UniProt Q2M2I8); test: Binding affinity to human wild-type AAK1 (G25 to L333 residues) expressed in bacterial expression system assessed as residual binding level at 10 uM by Kinomescan method relative to control
[2] = tested on: Tyrosine-protein kinase ABL1 (Homo sapiens), P00519 [F317I]; test: Binding affinity to human non-phosphorylated ABL1 F317I mutant (S229 to K512 residues) expressed in mammalian expression system assessed as residual binding level at 10 uM by Kinomescan method relative to control
[3] = target: Cytoplasmic tyrosine-protein kinase BMX (Homo sapiens) (UniProt P51813); test: Binding affinity to wild-type human full length BMX (M1 to H675 residues) expressed in bacterial expression system assessed as residual binding level at 10 uM by Kinomescan method relative to control
[4] = target: Ephrin type-B receptor 1 (Homo sapiens) (UniProt P54762); test: Binding affinity to wild-type human partial length EPHB1 (P589 to T911 residues) expressed in bacterial expression system assessed as residual binding level at 10 uM by Kinomescan method relative to control
[5] = target: Ephrin type-B receptor 3 (Homo sapiens) (UniProt P54753); test: Binding affinity to wild-type human partial length EPHB3 (Q599 to T928 residues) expressed in bacterial expression system assessed as residual binding level at 10 uM by Kinomescan method relative to control
[6] = tested on: Receptor-type tyrosine-protein kinase FLT3 (Homo sapiens), P36888 [UNDEFINED MUTATION]; test: Binding affinity to human partial length FLT3 ITD mutant expressed in bacterial expression system assessed as residual binding level at 10 uM by Kinomescan method relative to control
[7] = target: Serine/threonine-protein kinase haspin (Homo sapiens) (UniProt Q8TF76); test: Binding affinity to wild-type human partial length HASPIN (I452 to K798 residues) expressed in mammalian expression system assessed as residual binding level at 10 uM by Kinomescan method relative to control
[8] = target: Homeodomain-interacting protein kinase 3 (Homo sapiens) (UniProt Q9H422); test: Binding affinity to wild-type human partial length HIPK3 (M153 to N562 residues) expressed in mammalian expression system assessed as residual binding level at 10 uM by Kinomescan method relative to control
Sequence of Homeodomain-interacting protein kinase 3 (Homo sapiens) (Q9H422 whole entry, looked up, the tested form may be a part): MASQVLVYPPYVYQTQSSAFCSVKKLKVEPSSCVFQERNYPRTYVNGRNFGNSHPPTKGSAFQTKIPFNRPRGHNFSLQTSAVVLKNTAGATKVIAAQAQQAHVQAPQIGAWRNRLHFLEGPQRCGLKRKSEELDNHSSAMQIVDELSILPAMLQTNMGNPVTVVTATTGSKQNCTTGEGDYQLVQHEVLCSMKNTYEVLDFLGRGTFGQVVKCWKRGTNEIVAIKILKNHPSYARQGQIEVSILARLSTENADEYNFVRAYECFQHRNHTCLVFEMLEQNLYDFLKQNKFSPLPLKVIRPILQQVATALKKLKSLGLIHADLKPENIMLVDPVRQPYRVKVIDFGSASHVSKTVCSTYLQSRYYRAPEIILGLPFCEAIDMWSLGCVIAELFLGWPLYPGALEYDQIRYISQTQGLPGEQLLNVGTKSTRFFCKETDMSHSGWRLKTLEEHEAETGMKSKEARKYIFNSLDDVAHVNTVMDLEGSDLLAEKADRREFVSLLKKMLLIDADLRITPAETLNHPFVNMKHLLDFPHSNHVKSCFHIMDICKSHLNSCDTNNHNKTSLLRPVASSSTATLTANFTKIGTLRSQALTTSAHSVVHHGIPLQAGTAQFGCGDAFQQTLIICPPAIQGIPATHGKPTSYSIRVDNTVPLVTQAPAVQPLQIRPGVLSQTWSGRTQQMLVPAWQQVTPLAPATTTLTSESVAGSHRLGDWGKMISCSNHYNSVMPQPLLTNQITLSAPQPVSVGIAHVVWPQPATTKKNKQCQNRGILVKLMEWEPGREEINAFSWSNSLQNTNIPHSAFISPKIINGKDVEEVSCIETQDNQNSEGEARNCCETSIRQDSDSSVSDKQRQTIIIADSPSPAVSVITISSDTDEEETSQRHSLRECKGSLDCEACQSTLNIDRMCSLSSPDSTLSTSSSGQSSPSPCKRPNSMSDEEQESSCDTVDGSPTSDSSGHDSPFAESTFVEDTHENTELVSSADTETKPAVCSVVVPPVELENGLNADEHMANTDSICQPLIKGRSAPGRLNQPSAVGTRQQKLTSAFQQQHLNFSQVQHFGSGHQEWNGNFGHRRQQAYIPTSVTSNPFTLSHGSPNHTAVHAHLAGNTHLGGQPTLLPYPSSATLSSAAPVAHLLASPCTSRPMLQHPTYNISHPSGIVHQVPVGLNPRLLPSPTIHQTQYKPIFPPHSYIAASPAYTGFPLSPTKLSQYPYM

[9] = target: Inhibitor of nuclear factor kappa-B kinase subunit beta (Homo sapiens) (UniProt O14920); test: Binding affinity to wild-type human full length IKK-beta (M1 to S756 residues) expressed in mammalian expression system assessed as residual binding level at 10 uM by Kinomescan method relative to control
[10] = target: Serine/threonine-protein kinase 24 (Homo sapiens) (UniProt Q9Y6E0); test: Binding affinity to wild-type human partial length MST3 (A30 to S311 residues) expressed in bacterial expression system assessed as residual binding level at 10 uM by Kinomescan method relative to control
[11] = target: Myosin light chain kinase family member 4 (Homo sapiens) (UniProt Q86YV6); test: Binding affinity to wild-type human partial length MYLK4 (V79 to S380 residues) expressed in bacterial expression system assessed as residual binding level at 10 uM by Kinomescan method relative to control
[12] = target: Mitogen-activated protein kinase 12 (Homo sapiens) (UniProt P53778); test: Binding affinity to wild-type human full length p38-gamma (M1 to L367 residues) expressed in mammalian expression system assessed as residual binding level at 10 uM by Kinomescan method relative to control
Sequence of Mitogen-activated protein kinase 12 (Homo sapiens) (P53778 whole entry, the tested form may be a part): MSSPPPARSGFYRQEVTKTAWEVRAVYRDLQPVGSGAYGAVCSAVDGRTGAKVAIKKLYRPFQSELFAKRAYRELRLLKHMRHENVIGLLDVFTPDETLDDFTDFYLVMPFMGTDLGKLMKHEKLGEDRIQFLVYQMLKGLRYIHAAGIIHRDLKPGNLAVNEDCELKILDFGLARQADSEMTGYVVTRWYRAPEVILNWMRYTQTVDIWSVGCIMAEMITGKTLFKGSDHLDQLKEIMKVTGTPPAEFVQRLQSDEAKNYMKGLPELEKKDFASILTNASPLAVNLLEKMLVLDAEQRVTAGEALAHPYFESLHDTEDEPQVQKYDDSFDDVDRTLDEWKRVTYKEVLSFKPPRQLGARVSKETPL

[13] = target: Cyclin-dependent kinase 14 (Homo sapiens) (UniProt O94921); test: Binding affinity to wild-type human full length PFTK1 (M1 to H451 residues) expressed in bacterial expression system assessed as residual binding level at 10 uM by Kinomescan method relative to control
[14] = target: Phosphatidylinositol 4-kinase beta (Homo sapiens) (UniProt Q9UBF8); test: Binding affinity to wild-type human full length PIK4CB (M1 to M828 residues) expressed in mammalian expression system assessed as residual binding level at 10 uM by Kinomescan method relative to control
[15] = target: Serine/threonine-protein kinase PLK3 (Homo sapiens) (UniProt Q9H4B4); test: Binding affinity to wild-type human partial length PLK3 (A42 to L334 residues) expressed in mammalian expression system assessed as residual binding level at 10 uM by Kinomescan method relative to control
Sequence of Serine/threonine-protein kinase PLK3 (Homo sapiens) (Q9H4B4 whole entry, looked up, the tested form may be a part): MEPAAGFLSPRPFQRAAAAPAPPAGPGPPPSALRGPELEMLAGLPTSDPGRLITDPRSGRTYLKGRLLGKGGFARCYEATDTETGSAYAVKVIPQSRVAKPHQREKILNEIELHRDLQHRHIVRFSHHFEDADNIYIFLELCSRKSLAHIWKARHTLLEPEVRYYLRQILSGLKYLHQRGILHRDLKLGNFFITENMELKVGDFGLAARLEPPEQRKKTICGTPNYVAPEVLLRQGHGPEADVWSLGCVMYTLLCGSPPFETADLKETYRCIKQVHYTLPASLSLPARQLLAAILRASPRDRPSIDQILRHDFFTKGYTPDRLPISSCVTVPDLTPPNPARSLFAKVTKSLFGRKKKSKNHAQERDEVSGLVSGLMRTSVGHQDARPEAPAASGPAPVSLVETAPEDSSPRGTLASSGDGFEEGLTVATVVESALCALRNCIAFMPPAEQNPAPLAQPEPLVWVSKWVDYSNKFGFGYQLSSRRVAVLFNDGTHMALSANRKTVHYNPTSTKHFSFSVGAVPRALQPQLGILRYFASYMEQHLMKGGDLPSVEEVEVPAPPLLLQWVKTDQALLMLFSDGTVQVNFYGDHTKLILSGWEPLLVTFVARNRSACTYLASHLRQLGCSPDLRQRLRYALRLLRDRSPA

[16] = target: Protein kinase C delta type (Homo sapiens) (UniProt Q05655); test: Binding affinity to wild-type human partial length PRKCD (Q328 to D676 residues) expressed in bacterial expression system assessed as residual binding level at 10 uM by Kinomescan method relative to control
Sequence of Protein kinase C delta type (Homo sapiens) (Q05655 whole entry, looked up, the tested form may be a part): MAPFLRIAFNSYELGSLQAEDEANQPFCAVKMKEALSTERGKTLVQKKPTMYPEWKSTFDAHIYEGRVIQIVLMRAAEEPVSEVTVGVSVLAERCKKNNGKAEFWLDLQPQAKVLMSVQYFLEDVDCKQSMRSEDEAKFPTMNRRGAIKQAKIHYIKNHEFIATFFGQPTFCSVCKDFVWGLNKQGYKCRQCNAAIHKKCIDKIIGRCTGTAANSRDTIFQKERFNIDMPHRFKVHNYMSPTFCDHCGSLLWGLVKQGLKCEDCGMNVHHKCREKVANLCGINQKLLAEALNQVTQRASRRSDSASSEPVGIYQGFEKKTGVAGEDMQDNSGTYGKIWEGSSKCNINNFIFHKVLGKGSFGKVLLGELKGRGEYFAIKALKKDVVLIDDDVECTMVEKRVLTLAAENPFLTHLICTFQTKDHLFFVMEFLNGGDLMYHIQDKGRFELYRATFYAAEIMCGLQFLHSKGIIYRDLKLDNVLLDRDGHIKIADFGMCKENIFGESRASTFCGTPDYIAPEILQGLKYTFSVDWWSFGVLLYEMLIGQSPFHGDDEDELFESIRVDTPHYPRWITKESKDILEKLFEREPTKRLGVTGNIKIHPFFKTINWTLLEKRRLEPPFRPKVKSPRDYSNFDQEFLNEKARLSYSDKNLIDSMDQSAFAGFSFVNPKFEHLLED

[17] = target: Protein kinase C eta type (Homo sapiens) (UniProt P24723); test: Binding affinity to wild-type human partial length PRKCH (S324 to P683 residues) expressed in bacterial expression system assessed as residual binding level at 10 uM by Kinomescan method relative to control
[18] = tested on: Proto-oncogene tyrosine-protein kinase receptor Ret (Homo sapiens), P07949 [V804M]; test: Binding affinity to human partial length RET V804M mutant (E713 to D1014 residues) expressed in bacterial expression system assessed as residual binding level at 10 uM by Kinomescan method relative to control
Sequence of Proto-oncogene tyrosine-protein kinase receptor Ret (Homo sapiens), P07949 [V804M] (P07949 whole entry V804M, the tested form may be a part): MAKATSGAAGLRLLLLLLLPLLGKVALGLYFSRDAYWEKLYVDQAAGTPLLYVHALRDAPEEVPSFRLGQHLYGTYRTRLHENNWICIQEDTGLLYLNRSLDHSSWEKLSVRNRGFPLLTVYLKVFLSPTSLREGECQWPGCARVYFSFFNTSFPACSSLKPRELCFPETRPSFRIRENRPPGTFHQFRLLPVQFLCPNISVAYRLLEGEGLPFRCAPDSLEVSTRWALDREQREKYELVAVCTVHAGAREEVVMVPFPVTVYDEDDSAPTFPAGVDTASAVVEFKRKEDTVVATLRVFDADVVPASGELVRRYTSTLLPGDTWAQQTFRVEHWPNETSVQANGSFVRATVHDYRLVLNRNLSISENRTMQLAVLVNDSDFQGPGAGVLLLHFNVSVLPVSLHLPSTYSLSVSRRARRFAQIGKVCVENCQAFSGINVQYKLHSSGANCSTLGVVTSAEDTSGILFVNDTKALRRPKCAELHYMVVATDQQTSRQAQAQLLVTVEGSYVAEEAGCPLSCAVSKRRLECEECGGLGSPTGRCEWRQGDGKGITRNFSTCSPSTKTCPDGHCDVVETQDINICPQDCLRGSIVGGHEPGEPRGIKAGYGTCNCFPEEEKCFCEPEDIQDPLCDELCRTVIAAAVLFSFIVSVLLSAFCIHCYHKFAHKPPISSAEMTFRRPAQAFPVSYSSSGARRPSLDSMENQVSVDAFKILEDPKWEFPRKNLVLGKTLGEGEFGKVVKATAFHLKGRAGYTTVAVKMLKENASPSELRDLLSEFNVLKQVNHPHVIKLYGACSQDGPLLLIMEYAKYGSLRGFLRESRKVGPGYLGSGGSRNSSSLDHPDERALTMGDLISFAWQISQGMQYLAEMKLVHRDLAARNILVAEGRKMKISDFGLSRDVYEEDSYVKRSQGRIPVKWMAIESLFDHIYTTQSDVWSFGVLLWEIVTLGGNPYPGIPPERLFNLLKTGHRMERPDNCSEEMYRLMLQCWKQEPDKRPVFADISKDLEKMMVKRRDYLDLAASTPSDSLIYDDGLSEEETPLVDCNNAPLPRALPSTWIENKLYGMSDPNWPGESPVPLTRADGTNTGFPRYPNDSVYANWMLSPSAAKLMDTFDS

[19] = target: Serine/threonine-protein kinase RIO1 (Homo sapiens) (UniProt Q9BRS2); test: Binding affinity to wild-type human full length RIOK1 (M1 to K568 residues) expressed in bacterial expression system assessed as residual binding level at 10 uM by Kinomescan method relative to control
Sequence of Serine/threonine-protein kinase RIO1 (Homo sapiens) (Q9BRS2 whole entry, the tested form may be a part): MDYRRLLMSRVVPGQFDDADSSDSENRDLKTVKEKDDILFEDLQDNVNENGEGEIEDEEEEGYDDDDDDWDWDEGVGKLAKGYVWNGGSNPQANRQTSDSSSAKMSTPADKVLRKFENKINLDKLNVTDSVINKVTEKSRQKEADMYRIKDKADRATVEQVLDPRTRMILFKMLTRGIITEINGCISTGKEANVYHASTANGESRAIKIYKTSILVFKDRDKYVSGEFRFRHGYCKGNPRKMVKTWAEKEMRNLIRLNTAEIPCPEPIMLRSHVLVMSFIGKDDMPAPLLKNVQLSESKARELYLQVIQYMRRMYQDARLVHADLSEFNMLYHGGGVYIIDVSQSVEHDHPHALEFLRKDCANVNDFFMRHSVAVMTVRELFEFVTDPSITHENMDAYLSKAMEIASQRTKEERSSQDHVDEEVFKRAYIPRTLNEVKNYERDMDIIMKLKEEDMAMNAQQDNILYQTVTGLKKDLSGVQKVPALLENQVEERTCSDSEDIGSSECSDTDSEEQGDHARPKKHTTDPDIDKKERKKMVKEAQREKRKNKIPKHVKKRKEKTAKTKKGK

[20] = target: Serine/threonine-protein kinase RIO2 (Homo sapiens) (UniProt Q9BVS4); test: Binding affinity to wild-type human partial length RIOK2 (M1 to D313 residues) expressed in mammalian expression system assessed as residual binding level at 10 uM by Kinomescan method relative to control
[21] = target: Serine/threonine-protein kinase 16 (Homo sapiens) (UniProt O75716); test: Binding affinity to wild-type human partial length STK16 (G11 to I305 residues) expressed in bacterial expression system assessed as residual binding level at 10 uM by Kinomescan method relative to control
[22] = target: Tyrosine-protein kinase receptor Tie-1 (Homo sapiens) (UniProt P35590); test: Binding affinity to wild-type human partial length TIE1 (T819 to A1138 residues) expressed in bacterial expression system assessed as residual binding level at 10 uM by Kinomescan method relative to control
[23] = target: Tyrosine-protein kinase Yes (Homo sapiens) (UniProt P07947); test: Binding affinity to wild-type human partial length YES (T257 to L543 residues) expressed in bacterial expression system assessed as residual binding level at 10 uM by Kinomescan method relative to control
[24] = target: Serine/threonine-protein kinase 25 (Homo sapiens) (UniProt O00506); test: Binding affinity to wild-type human partial length YSK1 (V14 to H295 residues) expressed in bacterial expression system assessed as residual binding level at 10 uM by Kinomescan method relative to control
Sequence of Serine/threonine-protein kinase 25 (Homo sapiens) (O00506 whole entry, looked up, the tested form may be a part): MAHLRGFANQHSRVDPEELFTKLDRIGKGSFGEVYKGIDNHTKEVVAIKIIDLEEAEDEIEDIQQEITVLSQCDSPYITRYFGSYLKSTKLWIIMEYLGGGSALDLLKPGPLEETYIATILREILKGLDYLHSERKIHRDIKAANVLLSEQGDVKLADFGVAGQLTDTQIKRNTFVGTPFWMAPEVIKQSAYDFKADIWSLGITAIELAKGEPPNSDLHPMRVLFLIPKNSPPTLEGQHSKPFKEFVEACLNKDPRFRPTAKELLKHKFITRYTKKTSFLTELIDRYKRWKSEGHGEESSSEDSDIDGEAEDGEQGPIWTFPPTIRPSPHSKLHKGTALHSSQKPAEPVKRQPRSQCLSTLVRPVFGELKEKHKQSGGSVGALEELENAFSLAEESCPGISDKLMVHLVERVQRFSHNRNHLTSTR

MDR1 = test: in vitro; conditions: dog, MDCK-MDR1
Description: Efflux ratio of apparent permeability from basolateral to apical over apical to basolateral side in MDCK2-MDR1 cells by HPLC analysis

## O=C(Nc1cc(-c2cn(CCNc3c4c(nc5ccccc35)CCCC4)nn2)ccn1)Nc1cccc2c1C1CCCCN1C2=O (racemic)
[1]
  Activity: 13%
[2]
  Activity: 100%
[3]
  Activity: 100%
[4]
  Activity: 67%
[5]
  Activity: 100%
[6]
  Activity: 1%
[7]
  Activity: 3.9%
[8]
  Activity: 99%
[9]
  Activity: 30%
[10]
  Activity: 59%
[11]
  Activity: 0%
[12]
  Activity: 5.7%
[13]
  Activity: 28%
[14]
  Activity: 28%
[15]
  Activity: 77%
[16]
  Activity: 7.3%
[17]
  Activity: 3.9%
[18]
  Activity: 13%
[19]
  Activity: 5.2%
[20]
  Activity: 22%
[21]
  Activity: 1.9%
[22]
  Activity: 66%
[23]
  Activity: 76%
[24]
  Activity: 54%
MDR1
  efflux ratio: 1.51
